Where two headings read alike, the source gives them in different places.
Legend:
[1] = Acute oral toxicity in mice; parameters: species or system adult albino male mice (Charles River strain); conditions: mouse, in vivo, 95% limits in parentheses
Description: (§1) All tests were conducted on adult albino male mice (Charles River strain); the dosage consisted of the active agent suspended in 10% aqueous acacia and was administered orally and/or subcutaneously as indicated.
(§2) Acute oral toxicity was determined in the conventional manner. The results were expressed as LD50, the dose required to produce death in 50% of the animals treated, determined graphically, with the 95% limits shown in parentheses.

[2] = Hot-plate analgetic activity (Eddy and Leimbach, modified); format: in vivo, adult albino male mice (Charles River strain); conditions: for ED50: Mus musculus, mice
Description: as §1
Two established procedures were employed to determine analgetic activity. The method described by Eddy, N. B., and Leimbach, D., J. Pharmacol. Exptl. Therap. 107, 385 (1953) was followed, with the following modifications, in the first procedure. Mice are pretested by placing them individually on the cleaned surface of a copper water bath, the temperature of which is maintained at 54°-55°C. The reaction time of this noxious thermal stimulus is the time in seconds required for either licking of the paws or jumping, such that all four paws leave the surface of the plate. The drug is then administered orally or subcutaneously, generally at five dosage levels, (10 mice per dosage level) and the reaction times are redetermined at intervals of 1/2 hour, 1 hour, and 2 hours; the time of peak activity is the time at which the greatest number of animals is protected. From the pretreatment reaction times the mean and standard deviations are computed. The cut-off time is taken to be the mean reaction time plus 2 standard deviation units. Reaction times equal to or exceeding this cut-off time are considered to represent analgetic responses. The dosage required to produce an analgetic response in 50% of the animals (ED50 and 95% limits) is computed graphically.

[3] = Phenyl-p-quinone writhing (Siegmund); format: in vivo, adult albino male mice (Charles River strain); conditions: oral, mice, not dose-related
Description: as §1
In the second procedure, the method of Siegmund, E., et al. reported in Proc. Soc. Exptl. Biol. and Med. 95, 729, (1957) was generally followed. The method is based on the antagonism by both non-narcotic and narcotic analgetics of a syndrome induced in mice following intraperitoneal injection of phenyl-p-quinone. The syndrome is characterized by intermittent contractions of the abdomen, twisting and turning of the trunk, and extension of the hind legs, beginning 3 to 10 minutes after the injection and persisting for more than one hour. The test drug is administered orally at four to five dosage levels. At the time of peak activity, 0.25 ml. of a 0.02 per cent solution of phenyl-p-quinone in 5 per cent (aqueous) ethyl alcohol is injected intraperitoneally. Inhibition of the syndrome is considered an analgetic response.

[4] = Therapeutic index (LD50 divided by ED50); parameters: species or system adult albino male mice (Charles River strain); conditions: mouse, in vivo; oral LD50 / oral hot-plate ED50, mice
Description: By therapeutic index is meant the LD50 of a compound divided by its ED50, or the dose required to kill one-half of the test animals divided by the dose required to produce the desired therapeutic effect in one-half of the test animals. It will be apparent that the larger the therapeutic index, the greater the margin of safety and the more desirable the drug.
as §1, §2
Two established procedures were employed to determine analgetic activity. The method described by Eddy, N. B., and Leimbach, D., J. Pharmacol. Exptl. Therap. 107, 385 (1953) was followed, with the following modifications, in the first procedure. Mice are pretested by placing them individually on the cleaned surface of a copper water bath, the temperature of which is maintained at 54°-55°C. The reaction time of this noxious thermal stimulus is the time in seconds required for either licking of the paws or jumping, such that all four paws leave the surface of the plate. […]

Question: Which LD50 [1] does the source give for CC(c1ccccc1)C1(OC(=O)C(C)(C)C)C(=O)NC(=O)NC1=O (centres unmarked) [5-pivaloyloxy-5-(1-phenylethyl) barbituric acid] here?
Answer: 690 mg/kg

Question: What about the ED50 ([2]; sc, subcutaneous, not dose-related, read-out: Hot-Plate ED50 (subcutaneous)) of the same compound?
Answer: 40 to 80 mg/kg

Question: What about the ED50 ([2]; oral, read-out: Hot-Plate ED50 (oral)) of the same compound?
Answer: < 3.1 mg/kg

Question: What about the “Time of Peak Activity” value ([2]; time at which the greatest number of animals is protected) of the same compound?
Answer: 1/2

Question: What about the “Phenyl-p-quinone Writhing, % active” value ([3]; 100 mg/kg) of the same compound?
Answer: 26%

Question: What about the “Phenyl-p-quinone Writhing, % active” value ([3]; 200 mg/kg) of the same compound?
Answer: 30%

Question: And the “Phenyl-p-quinone Writhing, % active” value ([3]; 400 mg/kg)?
Answer: 10%

Question: And the selectivity ratio [4]?
Answer: > 230

From patent US3937830A, “5-Pivaloyloxy-5-(1-phenylethyl) barbituric acid, analgetic composition and method based thereon” (The Kendall Company, priority 1974, dated 1976)
